Source: the supplement of paper PMC11061612

Key:
[1] = system: MKN1 (Gastric Carcinoma); assay: Bliss excess, mean over the matrix (fraction); higher = more synergy
Summary of the method: (§1)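 Cell lines grown in DMEM/F12 or RPMI with 10% FBS were plated in 1536-well plates and held 24 hours at 37°C, 5% CO2 before 72 hours of exposure to two-drug dose matrices, with DMSO typically at 0.2%. CellTiter-Glo 2.0 luminescence gave viability, which was converted to inhibition. Vehicle wells were set to 0 and blank wells to 1. Combination Emax is the second-highest inhibition in the matrix, and Bliss excess is the observed combination effect minus the expected EA + EB − EA·EB, where EA and EB are the single-agent effects.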

[2] = system: HCC1395 (Breast Carcinoma); assay: as above
Summary of the method: as §1

[3] = system: MHH-ES-1 (Ewing's Sarcoma); assay: as above
Summary of the method: as §1

[4] = system: JHH-2 (Hepatocellular Carcinoma); assay: as above
Summary of the method: as §1

[5] = system: WM1552C (Melanoma); assay: as above
Summary of the method: as §1

[6] = system: NCI-H841 (Small Cell Lung Carcinoma); assay: as above
Summary of the method: as §1

[7] = system: UACC-812 (Breast Carcinoma); assay: as above
Summary of the method: as §1

[8] = system: MKN1 (Gastric Carcinoma); assay: combination Emax (second highest fraction inhibited in the dose matrix, 72 h); higher = more inhibition; extreme values may be limits of the assay
Summary of the method: as §1

[9] = system: NCI-H841 (Small Cell Lung Carcinoma); assay: as above
Summary of the method: as §1

[10] = system: DU-4475 (Breast Carcinoma); assay: Bliss excess, mean over the matrix (fraction); higher = more synergy
Summary of the method: as §1
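Wherever Bliss excess, mean over the matrix is given: after 72 h of two-drug dosing.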

| SMILES | Bliss excess [1] | Bliss excess [2] | Bliss excess [3] | Bliss excess [4] | Bliss excess [5] | Bliss excess [6] | Bliss excess [7] | combination Emax [8] | combination Emax [9] | Bliss excess [10] |
| --- | --- | --- | --- | --- | --- | --- | --- | --- | --- | --- |
| O=C(c1cc(Cc2n[nH]c(=O)c3ccccc23)ccc1F)N1CCN(C(=O)C2CC2)CC1 [Olaparib] + Cc1c2c(nn1C)CSCc1cc(n(C)n1)CSc1cc(c3ccccc3c1)OCCCc1c(C(=O)O)n(C)c3c-2c(Cl)ccc13 [AZD5991] (first compound max 10 µM, 7x7, partner max 1 µM) | -0.0332 | -0.016 | 0.0108 | -0.0539 | 0.0329 | -0.0522 | -0.0301 | 0.118 | 0.126 | – |
| Cc1c2c(nn1C)CSCc1cc(n(C)n1)CSc1cc(c3ccccc3c1)OCCCc1c(C(=O)O)n(C)c3c-2c(Cl)ccc13 [AZD5991] + CS(=O)(=O)CCNCc1ccc(-c2ccc3ncnc(Nc4ccc(OCc5cccc(F)c5)c(Cl)c4)c3c2)o1 [Lapatinib] (first compound max 1 µM, 7x7, partner max 10 µM) | -0.0016 | -0.0227 | 0.0286 | -0.063 | 0.0199 | -0.0161 | 0.0603 | 0.53 | 0.3 | – |
| CN(CCO)CC[C@H](CSc1ccccc1)Nc1ccc(S(=O)(=O)NC(=O)c2ccc(N3CCC([C@@H](O)c4ccccc4-c4ccc(Cl)cc4)CC3)cc2)cc1S(=O)(=O)C(F)(F)F [AZD4320] + CS(=O)(=O)CCNCc1ccc(-c2ccc3ncnc(Nc4ccc(OCc5cccc(F)c5)c(Cl)c4)c3c2)o1 [Lapatinib] (first compound max 1 µM, 7x7, partner max 10 µM) | 0.046 | -0.0261 | 0.136 | 0.0312 | 0.0285 | -0.0037 | -0.0066 | 0.888 | 0.237 | – |
| Cc1nc(-c2cn3c(n2)-c2ccc(-c4cnn(C(C)(C)C(N)=O)c4)cc2OCC3)n(C(C)C)n1 [Taselisib] + O=C(Nc1ccc2[nH]nc(-c3ccncc3)c2c1)[C@@H]1CCN(CC(=O)N2CCN(c3ccc(-c4ncccn4)cc3)CC2)C1 [SCH772984] (first compound max 10 µM, 7x7, partner max 5 µM) | 0.0698 | 0.0294 | 0.102 | -0.0398 | 0.0205 | 0.0606 | 0.0095 | 0.838 | 0.439 | – |
| C=CCn1c(=O)c2cnc(Nc3ccc(N4CCN(C)CC4)cc3)nc2n1-c1cccc(C(C)(C)O)n1 [AZD1775] + CCc1c2c(nc3ccc(O)cc13)-c1cc3c(c(=O)n1C2)COC(=O)[C@]3(O)CC [SN-38] (first compound max 1 µM, partner max 0.3 µM) | -0.0056 | -0.0322 | -0.0073 | 0.106 | -0.0628 | -0.0421 | -0.0472 | 0.869 | 0.66 | – |
| Cc1c2c(nn1C)CSCc1cc(n(C)n1)CSc1cc(c3ccccc3c1)OCCCc1c(C(=O)O)n(C)c3c-2c(Cl)ccc13 [AZD5991] + Nc1ccn([C@@H]2O[C@H](CO)[C@@H](O)C2(F)F)c(=O)n1 [Gemcitabine] (first compound max 1 µM, 7x7, partner max 0.3 µM) | -0.0205 | -0.0262 | – | -0.005 | -0.0232 | 0.0135 | -0.0041 | 0.624 | 0.567 | – |
| C[C@@H](Oc1cc(-c2cnn(C3CCNCC3)c2)cnc1N)c1c(Cl)ccc(F)c1Cl [Crizotinib] + Cn1cnc2c(F)c(Nc3ccc(Br)cc3Cl)c(C(=O)NOCCO)cc21 [Selumetinib] (first compound max 10 µM, 7x7, partner max 10 µM) | 0.0001 | -0.0786 | -0.0236 | 0.0094 | -0.0338 | -0.0528 | -0.0437 | 0.561 | 0.202 | – |
| C[C@@H]1COCCN1c1cc(C2([S@](C)(=N)=O)CC2)nc(-c2ccnc3[nH]ccc23)n1 [AZD6738] + C1CC(C1)(C(=O)[O-])C(=O)[O-].N.N.[Pt+2] [Carboplatin] (first compound max 10 µM, 7x7, partner max 10 µM) | -0.0424 | -0.0573 | -0.0078 | -0.0309 | -0.0299 | -0.0587 | -0.0423 | 0.85 | 0.503 | – |
| CC1(C)CCC(CN2CCN(c3ccc(C(=O)NS(=O)(=O)c4ccc(NCC5CCOCC5)c([N+](=O)[O-])c4)c(Oc4cnc5[nH]ccc5c4)c3)CC2)=C(c2ccc(Cl)cc2)C1 [Venetoclax] + CS(=O)(=O)CCNCc1ccc(-c2ccc3ncnc(Nc4ccc(OCc5cccc(F)c5)c(Cl)c4)c3c2)o1 [Lapatinib] (first compound max 1 µM, 7x7, partner max 10 µM) | -0.0194 | -0.0509 | 0.0086 | -0.0664 | -0.0328 | -0.0506 | 0.0062 | 0.433 | 0.13 | – |
| C[C@@H](Nc1cc(F)cc(F)c1)c1cc(C(=O)N(C)C)cc2c(=O)cc(N3CCOCC3)oc12 [AZD8186] + C1CN(CCC1(C(=O)N[C@@H](CCO)C2=CC=C(C=C2)Cl)N)C3=NC=NC4=C3C=CN4 [AZD5363] (first compound max 10 µM, 7x7, partner max 10 µM) | -0.0304 | 0.0007 | 0.0026 | -0.0637 | -0.0322 | -0.025 | -0.0187 | 0.491 | 0.293 | – |
| O=C(c1cc(Cc2n[nH]c(=O)c3ccccc23)ccc1F)N1CCN(C(=O)C2CC2)CC1 [Olaparib] + CN(CC[C@H](CSC1=CC=CC=C1)NC2=C(C=C(C=C2)S(=O)(=O)NC(=O)C3=CC=C(C=C3)N4CCC(CC4)[C@H](C5=CC=CC=C5C6=CC=C(C=C6)Cl)O)S(=O)(=O)C(F)(F)F)CCO [AZD4320] (first compound max 10 µM, 7x7, partner max 1 µM) | -0.0238 | -0.0335 | 0.0657 | -0.0363 | 0.0005 | -0.0526 | -0.0086 | 0.165 | 0.0513 | – |
| C[C@@H]1COCCN1c1cc(C2([S@](C)(=N)=O)CC2)nc(-c2ccnc3[nH]ccc23)n1 [AZD6738] + Nc1ccn([C@@H]2O[C@H](CO)[C@@H](O)C2(F)F)c(=O)n1 [Gemcitabine] (first compound max 10 µM, 7x7, partner max 0.3 µM) | 0.0369 | 0.0334 | 0.0624 | 0.0069 | 0.0225 | 0.0975 | 0.0592 | 0.951 | 0.829 | – |
| O=C(c1cc(Cc2n[nH]c(=O)c3ccccc23)ccc1F)N1CCN(C(=O)C2CC2)CC1 [Olaparib] + CC1(C)CCC(CN2CCN(c3ccc(C(=O)NS(=O)(=O)c4ccc(NCC5CCOCC5)c([N+](=O)[O-])c4)c(Oc4cnc5[nH]ccc5c4)c3)CC2)=C(c2ccc(Cl)cc2)C1 [Venetoclax] (first compound max 10 µM, 7x7, partner max 1 µM) | -0.0437 | -0.0396 | 0.0283 | -0.0527 | -0.0325 | -0.057 | -0.0202 | 0.122 | 0.0548 | – |
| CS(=O)(=O)CCNCc1ccc(-c2ccc3ncnc(Nc4ccc(OCc5cccc(F)c5)c(Cl)c4)c3c2)o1 [Lapatinib] + NC1(c2ccc(-c3nc4ccn5c(=O)[nH]nc5c4cc3-c3ccccc3)cc2)CCC1 [MK-2206] (first compound max 10 µM, 7x7, partner max 10 µM) | 0.0099 | -0.0376 | 0.0191 | -0.0371 | -0.0297 | -0.0246 | – | 0.925 | 0.17 | 0.0428 |
| C[C@@H](Nc1cc(F)cc(F)c1)c1cc(C(=O)N(C)C)cc2c(=O)cc(N3CCOCC3)oc12 [AZD8186] + CC(=O)c1c(C)c2cnc(Nc3ccc(N4CCNCC4)cn3)nc2n(C2CCCC2)c1=O [Palbociclib] (first compound max 10 µM, 7x7, partner max 10 µM) | 0.0017 | 0.063 | 0.108 | -0.0282 | -0.0163 | 0.0118 | 0.0506 | 0.674 | 0.266 | – |
| CS(=O)(=O)CCNCc1ccc(-c2ccc3ncnc(Nc4ccc(OCc5cccc(F)c5)c(Cl)c4)c3c2)o1 [Lapatinib] + Cn1cnc2c(F)c(Nc3ccc(Br)cc3Cl)c(C(=O)NOCCO)cc21 [Selumetinib] (first compound max 10 µM, 7x7, partner max 10 µM) | -0.002 | -0.0343 | 0.0015 | -0.0273 | -0.0077 | 0.0251 | -0.0001 | 0.596 | 0.303 | – |
| Cc1c2c(nn1C)CSCc1cc(n(C)n1)CSc1cc(c3ccccc3c1)OCCCc1c(C(=O)O)n(C)c3c-2c(Cl)ccc13 [AZD5991] + CC(=O)O[C@H]1C(=O)[C@@]2(C)[C@H]([C@H](OC(=O)c3ccccc3)[C@]3(O)C[C@H](OC(=O)[C@H](O)[C@@H](NC(=O)c4ccccc4)c4ccccc4)C(C)=C1C3(C)C)[C@]1(OC(C)=O)CO[C@@H]1C[C@@H]2O [Paclitaxel] (first compound max 1 µM, 7x7, partner max 3 µM) | -0.103 | 0.0501 | -0.009 | 0.017 | 0.0097 | 0.0663 | 0.0968 | 0.824 | 0.973 | – |
| O=C(c1cc(Cc2n[nH]c(=O)c3ccccc23)ccc1F)N1CCN(C(=O)C2CC2)CC1 [Olaparib] + COc1nnc2ccc(N3CCC(c4ccc(OCCN5CCN(C)C(=O)[C@H]5C)cc4)CC3)nn12 [AZD5153] (first compound max 10 µM, 7x7, partner max 1 µM) | -0.0577 | -0.0658 | 0.0286 | -0.0195 | -0.0553 | -0.0593 | -0.0384 | 0.631 | 0.236 | – |
| C=CCn1c(=O)c2cnc(Nc3ccc(N4CCN(C)CC4)cc3)nc2n1-c1cccc(C(C)(C)O)n1 [AZD1775] + Nc1ccn([C@@H]2O[C@H](CO)[C@@H](O)C2(F)F)c(=O)n1 [Gemcitabine] (first compound max 1 µM, partner max 0.3 µM) | 0.0171 | 0.0294 | 0.0359 | 0.0264 | -0.0467 | 0.0425 | -0.0613 | 0.927 | 0.726 | – |
| C[C@@H](Oc1cc(-c2cnn(C3CCNCC3)c2)cnc1N)c1c(Cl)ccc(F)c1Cl [Crizotinib] + CC1=C(C(=CC=C1)Cl)NC(=O)C2=CN=C(S2)NC3=CC(=NC(=N3)C)N4CCN(CC4)CCO [Dasatinib] (first compound max 10 µM, 7x7, partner max 2 µM) | 0.0586 | 0.0615 | -0.0279 | -0.0101 | 0.0392 | -0.0089 | -0.0135 | 0.866 | 0.301 | – |
